These results are taken from patent US10894784B2, “Heteroarylbenzimidazole compounds” (BAYER PHARMA AKTIENGESELLSCHAFT, priority 2015, dated 2021).

Where “and” joins values, the source holds several entries; their conditions need not be identical. Equal values may be shown once. Some results are limits rather than exact numbers.

This experiment concerns the target TBK1 (Homo sapiens (Human), UniProt Q9UHD2). Nature of the experiment: TBK1 low ATP kinase assay (in vitro assay 1). The format is biochemical. Particulars: in vitro assay 1, read-out: TBK1 low ATP kinase assay IC50.

Chain of TBK1 (Q9UHD2 whole entry): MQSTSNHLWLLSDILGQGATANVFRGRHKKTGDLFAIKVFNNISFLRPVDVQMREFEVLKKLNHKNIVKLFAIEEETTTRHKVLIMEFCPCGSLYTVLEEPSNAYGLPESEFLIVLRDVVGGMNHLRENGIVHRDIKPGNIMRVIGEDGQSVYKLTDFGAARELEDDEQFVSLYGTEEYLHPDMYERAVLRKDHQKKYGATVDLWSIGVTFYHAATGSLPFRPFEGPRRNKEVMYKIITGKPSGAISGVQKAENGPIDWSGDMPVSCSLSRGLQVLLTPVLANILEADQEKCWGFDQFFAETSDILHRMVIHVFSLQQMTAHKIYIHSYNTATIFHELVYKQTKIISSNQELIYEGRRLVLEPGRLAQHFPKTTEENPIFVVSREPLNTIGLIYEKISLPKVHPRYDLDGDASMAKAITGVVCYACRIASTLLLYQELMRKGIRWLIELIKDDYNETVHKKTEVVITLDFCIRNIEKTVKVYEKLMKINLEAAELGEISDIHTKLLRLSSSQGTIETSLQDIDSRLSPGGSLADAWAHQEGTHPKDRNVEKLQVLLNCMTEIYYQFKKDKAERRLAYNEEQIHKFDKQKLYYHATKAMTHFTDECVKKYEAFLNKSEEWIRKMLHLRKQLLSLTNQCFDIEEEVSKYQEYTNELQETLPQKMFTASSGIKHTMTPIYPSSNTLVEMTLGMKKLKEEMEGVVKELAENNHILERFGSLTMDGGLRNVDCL

Regarding `CC(c1ccnc(Nc2nc3ccc(-c4cc(C(F)F)ncn4)cc3[nH]2)c1)N1CCN(C(=O)CC(F)(F)F)CC1` (single isomer, unassigned) [Example 174.02, 1-(4-{(1R or 1S)-1-[2-({6-[6-(difluoromethyl)pyrimidin-4-yl]-1H-benzimidazol-2-yl}amino)pyridin-4-yl]ethyl}piperazin-1-yl)-3,3,3-trifluoropropan-1-one], the concentration for half-maximal inhibition (IC50) was determined as 0.00363 µM.
Under `CC(c1ccnc(Nc2nc3ccc(-c4cnn(CC5CC5(F)F)c4)cc3[nH]2)c1)N1CCN(C(=O)CC(F)(F)F)CC1` (single isomer, unassigned) [Example 55.02.01, 1-{4-[(1R or 1S)-1-(2-{[6-(1-{[(1R or IS)-2,2-difluorocyclopropyl]methyl}-1H-pyrazol-4-yl)-1H-benzimidazol-2-yl]amino}pyridin-4-yl)ethyl]piperazin-1-yl}-3,3,3-trifluoropropan-1-one] stands 0.00072 µM; under `COc1cc(-c2ccc3nc(Nc4cc(CN5CCN(C(=O)C6CC6)CC5)ccn4)[nH]c3c2)ncn1` [Example 163.03, cyclopropyl{4-[(2-{[6-(6-methoxypyrimidin-4-yl)-1H-benzimidazol-2-yl]amino}pyridin-4-yl)methyl]piperazin-1-yl}methanone], 0.018 µM.
In the case of `CC(c1ccnc(Nc2nc3ccc(-c4cc(N5CCC5)ncn4)cc3[nH]2)c1)N1CCN(C(=O)C2CC2)CC1` (single isomer, unassigned) [Example 115.03, (4-{(1R or 1S)-1-[2-({6-[6-(azetidin-1-yl)pyrimidin-4-yl]-1H-benzimidazol-2-yl}amino)pyridin-4-yl]ethyl}piperazin-1-yl)(cyclopropyl)methanone], the IC50 stood at 0.00062 µM.
To `CN(C)c1cc(-c2ccc3nc(Nc4cc(CN5CCN(C(=O)C6CC6)CC5)ccn4)[nH]c3c2)ccn1` [Example 135.03, cyclopropyl(4-{[2-({6-[2-(dimethylamino)pyridin-4-yl]-1H-benzimidazol-2-yl}amino)pyridin-4-yl]methyl}piperazin-1-yl)methanone] belongs 0.03 µM.
To `CCNc1cc(-c2ccc3nc(Nc4cc(CN5CCN(C(=O)C6CC6)CC5)ccn4)[nH]c3c2)ncn1` [Example 149.03, cyclopropyl(4-{[2-({6-[6-(ethylamino)pyrimidin-4-yl]-1H-benzimidazol-2-yl}amino)pyridin-4-yl]methyl}piperazin-1-yl)methanone] belongs 0.0023 µM; to `COc1cc(-c2ccc3nc(Nc4cc(CN5CCN(C(=O)CC(F)(F)F)CC5)ccn4)[nH]c3c2)c(F)cn1` [Example 03.02, 3,3,3-trifluoro-1-{4-[(2-{[6-(5-fluoro-2-methoxypyridin-4-yl)-1H-benzimidazol-2-yl]amino}pyridin-4-yl)methyl]piperazin-1-yl}propan-1-one], 0.232 µM.
Under `COc1cncnc1-c1ccc2nc(Nc3cc(C(C)N4CCN(C(=O)CC5CC5)CC4)ccn3)[nH]c2c1` (racemic) [Example 35.02.02, (rac)-2-cyclopropyl-1-{4-[1-(2-{[6-(5-methoxypyrimidin-4-yl)-1H-benzimidazol-2-yl]amino}pyridin-4-yl)ethyl]piperazin-1-yl}ethanone] stands 0.0115 µM; under `O=C(C1CC1)N1CCN(Cc2cc(Nc3nc4ccc(-c5ccncn5)cc4[nH]3)nc(C(F)(F)F)c2)CC1` [Example 23.03.01, cyclopropyl(4-{[2-{[6-(pyrimidin-4-yl)-1H-benzimidazol-2-yl]amino}-6-(trifluoromethyl)pyridin-4-yl]methyl}piperazin-1-yl)methanone], 0.161 µM.
Take `Cc1noc(-c2ccc3nc(Nc4cc(CN5C[C@@H](C)N(C(=O)CC6CC6)C[C@@H]5C)ccn4)[nH]c3c2)n1` [Example 16.02.03, 2-cyclopropyl-1-{(2R,5S)-2,5-dimethyl-4-[(2-{[6-(3-methyl-1,2,4-oxadiazol-5-yl)-1H-benzimidazol-2-yl]amino}pyridin-4-yl)methyl]piperazin-1-yl}ethanone]: the IC50 was 0.227 µM.
Under `COc1nccc(-c2ccc3nc(Nc4cc(CN5CCN(C(=O)OC(C)(C)C)CC5)ccn4)[nH]c3c2)n1` [Example 25.01.01, tert-butyl 4-[(2-{[6-(2-methoxypyrimidin-4-yl)-1H-benzimidazol-2-yl]amino}pyridin-4-yl)methyl]piperazine-1-carboxylate] stands 0.174 µM.
Under `Cc1cc(-c2ccc3nc(Nc4cc(CN5CCN(C(=O)C6CC6)CC5)ccn4)[nH]c3c2)c(F)cn1` [Example 131.03, cyclopropyl{4-[(2-{[6-(5-fluoro-2-methylpyridin-4-yl)-1H-benzimidazol-2-yl]amino}pyridin-4-yl)methyl]piperazin-1-yl}methanone] stands 0.032 µM; under `COc1c(-c2ccc3nc(Nc4cc(C(C)N5CCN(C(=O)C6CC6)CC5)ccn4)[nH]c3c2)ncnc1N1CC(F)(F)C1` (single isomer, unassigned) [Example 113.03, cyclopropyl(4-{(1R or 1S)-1-[2-({6-[6-(3,3-difluoroazetidin-1-yl)-5-methoxypyrimidin-4-yl]-1H-benzimidazol-2-yl}amino)pyridin-4-yl]ethyl}piperazin-1-yl)methanone], 0.0011 µM; under `CCOc1cnc(C)cc1-c1ccc2nc(Nc3cc(CN4CCN(C(=O)CC(F)(F)F)CC4)ccn3)[nH]c2c1` [Example 09.01, 1-{4-[(2-{[6-(5-ethoxy-2-methylpyridin-4-yl)-1H-benzimidazol-2-yl]amino}pyridin-4-yl)methyl]piperazin-1-yl}-3,3,3-trifluoropropan-1-one], 0.251 µM.
Under `Cc1noc(-c2ccc3nc(Nc4cc(CN5CCN(C(=O)c6cccs6)CC5)ccn4)[nH]c3c2)n1` [Example 101.24, {4-[(2-{[6-(3-methyl-1,2,4-oxadiazol-5-yl)-1H-benzimidazol-2-yl]amino}pyridin-4-yl)methyl]piperazin-1-yl}(thiophen-2-yl)methanone] stands 0.16 µM; under `CC(c1ccnc(Nc2nc3ccc(-c4cnn(C(C)C5CC5)c4)cc3[nH]2)c1)N1CCN(C(=O)CC(F)(F)F)CC1` (single isomer, unassigned) [Example 74.02, 1-{4-[(1R or 1S)-1-{2-[(6-{1-[(1RS)-1-cyclopropylethyl]-1H-pyrazol-4-yl}-1H-benzimidazol-2-yl)amino]pyridin-4-yl}ethyl]piperazin-1-yl}-3,3,3-trifluoropropan-1-one], 0.019 µM.
With `Cc1cccc(-c2ccc3nc(Nc4cc(CN5CCN(C(=O)OC(C)(C)C)CC5)ccn4)[nH]c3c2)n1` [Example 12.01, tert-butyl 4-[(2-{[6-(6-methylpyridin-2-yl)-1H-benzimidazol-2-yl]amino}pyridin-4-yl)methyl]piperazine-1-carboxylate], the IC50 was > 20 µM and 10 µM and 8.12 µM.
Under `CC(C)(C)OC(=O)N1CCN(Cc2ccnc(Nc3nc4ccc(-c5ccnc(C(F)F)c5)cc4[nH]3)c2)CC1` [Example 139.01, tert-butyl 4-{[2-({6-[2-(difluoromethyl)pyridin-4-yl]-1H-benzimidazol-2-yl}amino)pyridin-4-yl]methyl}piperazine-1-carboxylate] stands 0.055 µM; under `Cn1ccc(-c2ccc3nc(Nc4cc(CN5CCN(C(=O)C6CCC6)CC5)ccn4)[nH]c3c2)n1` [Example 40.04, cyclobutyl{4-[(2-{[6-(1-methyl-1H-pyrazol-3-yl)-1H-benzimidazol-2-yl]amino}pyridin-4-yl)methyl]piperazin-1-yl}methanone], 1.39 µM; under `CC(c1ccnc(Nc2nc3ccc(-c4cc(OCC(C)(F)F)ncn4)cc3[nH]2)c1)N1CCN(C(=O)C2CC2)CC1` (single isomer, unassigned) [Example 165.03, cyclopropyl(4-{(1R or 1S)-1-[2-({6-[6-(2,2-difluoropropoxy)pyrimidin-4-yl]-1H-benzimidazol-2-yl}amino)pyridin-4-yl]ethyl}piperazin-1-yl)methanone], 0.00179 µM.
Regarding `COc1cnc(OCC2CC2)nc1-c1ccc2nc(Nc3cc(CN4CCN(C(=O)C5CC5)CC4)ccn3)[nH]c2c1` [Example 64.01.02, cyclopropyl(4-{[2-({6-[2-(cyclopropylmethoxy)-5-methoxypyrimidin-4-yl]-1H-benzimidazol-2-yl}amino)pyridin-4-yl]methyl}piperazin-1-yl)methanone], the IC50 came out at 0.0337 µM.
In the case of `O=C(C1CC1)N1CCN(Cc2ccnc(Nc3nc4ccc(-c5cnc(Cl)nc5)cc4[nH]3)c2)CC1` [Example 45.02.02, {4-[(2-{[6-(2-chloropyrimidin-5-yl)-1H-benzimidazol-2-yl]amino}pyridin-4-yl)methyl]piperazin-1-yl}(cyclopropyl)methanone], the IC50 worked out at 0.38 µM.
Under `Clc1ccccc1N1CCN(Cc2ccnc(Nc3nc4ccc(-c5noc(C6CC6)n5)cc4[nH]3)c2)CC1` [Example 22.01, N-(4-{[4-(2-chlorophenyl)piperazin-1-yl]methyl}pyridin-2-yl)-6-(5-cyclopropyl-1,2,4-oxadiazol-3-yl)-1H-benzimidazol-2-amine] stands 0.481 µM; under `COc1c(NCC2CC2)ncnc1-c1ccc2nc(Nc3cc(C(C)N4CCN(C(=O)OC(C)(C)C)CC4)ccn3)[nH]c2c1` (single isomer, unassigned) [Example 109.02.01, tert-butyl 4-[(1R or 1S)-1-{2-[(6-{6-[(cyclopropylmethyl)amino]-5-methoxypyrimidin-4-yl}-1H-benzimidazol-2-yl)amino]pyridin-4-yl}ethyl]piperazine-1-carboxylate], 0.008 µM; under `CC(C)Oc1cncnc1-c1ccc2nc(Nc3cc(C(C)N4CCN(C(=O)C5CCC5)CC4)ccn3)[nH]c2c1` (single isomer, unassigned) [Example 36.04, cyclobutyl(4-{(1R or 1S)-1-[2-({6-[5-(propan-2-yloxy)pyrimidin-4-yl]-1H-benzimidazol-2-yl}amino)pyridin-4-yl]ethyl}piperazin-1-yl)methanone], 0.0025 µM.
To `COc1cc(-c2ccc3nc(Nc4cc(CN5CCN(C(=O)OC(C)(C)C)CC5)ccn4)[nH]c3c2)ccn1` [Example 02.01, tert-butyl 4-[(2-{[6-(2-methoxypyridin-4-yl)-1H-benzimidazol-2-yl]amino}pyridin-4-yl)methyl]piperazine-1-carboxylate] belongs 0.131 µM.
